{"source": "ChEMBL document CHEMBL5360625", "about": "“Design, Synthesis, and Antitumor Activity Evaluation of 2-Arylmethoxy-4-(2,2'-dihalogen-substituted biphenyl-3-ylmethoxy) Benzylamine Derivatives as Potent PD-1/PD-L1 Inhibitors” (J Med Chem, 2023)", "key": {"[1]": {"assay": "Half life in Sprague-Dawley rat at 10 mg/kg, ip measured upto 48 hrs by LC-MS/MS analysis", "type": "ADME, organism-based", "details": "in vivo"}, "[2]": {"assay": "Toxicity in PD-1/PD-L1 humanized C57/BL6 mouse implanted with mouse MC38 cells assessed as morphological change in liver at 50 mg/kg, IG qd administered on day 5 measured after 2 weeks by hematoxylin-eosin staining based inverted fluorescent microscopic analysis", "type": "organism-based, MC-38", "details": "in vivo, po, 336 h"}, "[3]": {"assay": "AUC (0 to infinity) in Sprague-Dawley rat at 40 mg/kg, IG measured upto 48 hrs by LC-MS/MS analysis", "type": "ADME, organism-based", "parameters": "time < 48 hrs, dose 40 mg/kg, route ig", "details": "Sprague-Dawley, in vivo, po"}, "[4]": {"assay": "Nephrotoxicity in PD-1/PD-L1 humanized C57/BL6 mouse implanted with mouse MC38 cells assessed as effect on urea level in serum at 50 mg/kg, IG qd administered on day 5 measured after 2 weeks", "type": "toxicity, organism-based, MC-38", "details": "in vivo, po, 336 h"}, "[5]": {"biological_target": "Programmed cell death protein 1/Programmed cell death 1 ligand 1 (Homo sapiens) (UniProt Q15116+Q9NZQ7)", "assay": "Inhibition of PD-1/PD-L1 interaction in human PBMC cells assessed as increase in IFN-gamma secretion at 4 uM incubated for 48 hrs in presence of PD-L1 protein by ELISA assay", "type": "cell-based"}, "MC-38 [6]": {"tested_on": "MC-38", "assay": "Immunomodulatory activity in mouse MC38 cells implanted in PD-1/PD-L1 humanized C57/BL6 mouse assessed as increase in CXCL9 mRNA expression level in tumor at 50 mg/kg, IG qd administered on day 5 measured after 2 weeks by RT-PCR analysis", "type": "functional, organism-based"}, "[7]": {"assay": "Toxicity in PD-1/PD-L1 humanized C57/BL6 mouse implanted with mouse MC38 cells assessed as morphological change in kidney at 50 mg/kg, IG qd administered on day 5 measured after 2 weeks by hematoxylin-eosin staining based inverted fluorescent microscopic analysis", "type": "organism-based, MC-38", "details": "in vivo, po, 336 h"}, "[8]": {"assay": "Tmax in Sprague-Dawley rat at 40 mg/kg, IG measured upto 48 hrs by LC-MS/MS analysis", "type": "ADME, organism-based", "details": "in vivo, po"}, "MC-38 [9]": {"tested_on": "MC-38", "assay": "Antitumor activity against mouse MC38 cells implanted in PD-1/PD-L1 humanized C57/BL6 mouse assessed as reduction in tumor growth at 50 mg/kg, IG qd administered on day 5 measured after 2 weeks", "type": "functional, organism-based"}, "[10]": {"assay": "Cmax in Sprague-Dawley rat at 8 mg/kg, iv measured upto 48 hrs by LC-MS/MS analysis", "type": "ADME, organism-based", "parameters": "time < 48 hrs, dose 8 mg/kg, route iv", "details": "in vivo"}, "[11]": {"assay": "Cmax in Sprague-Dawley rat at 40 mg/kg, IG measured upto 48 hrs by LC-MS/MS analysis", "type": "ADME, organism-based", "parameters": "dose 40 mg/kg, time < 48 hrs, route ig", "details": "in vivo, po"}, "[12]": {"assay": "Toxicity in PD-1/PD-L1 humanized C57/BL6 mouse implanted with mouse MC38 cells assessed as morphological change in heart at 50 mg/kg, IG qd administered on day 5 measured after 2 weeks by hematoxylin-eosin staining based inverted fluorescent microscopic analysis", "type": "organism-based, MC-38", "details": "in vivo, po, 336 h"}, "MC-38 [13]": {"tested_on": "MC-38", "assay": "Antitumor activity against mouse MC38 cells implanted in PD-1/PD-L1 humanized C57/BL6 mouse assessed as increase in perforin levels at 50 mg/kg, IG qd administered on day 5 measured after 2 weeks by microscopic analysis", "type": "functional, organism-based"}, "[14]": {"biological_target": "Programmed cell death 1 ligand 1 (Homo sapiens, UniProt Q9NZQ7)", "sequence (Q9NZQ7 whole entry)": "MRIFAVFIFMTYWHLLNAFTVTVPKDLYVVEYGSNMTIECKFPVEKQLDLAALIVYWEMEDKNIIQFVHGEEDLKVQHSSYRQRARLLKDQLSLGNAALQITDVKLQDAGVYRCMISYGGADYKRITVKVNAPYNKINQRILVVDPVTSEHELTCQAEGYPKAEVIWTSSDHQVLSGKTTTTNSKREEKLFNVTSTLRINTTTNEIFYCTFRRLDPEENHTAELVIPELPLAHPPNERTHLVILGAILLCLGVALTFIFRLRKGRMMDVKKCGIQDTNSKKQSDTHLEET", "assay": "Binding affinity to human PD-L1 expressed in Escherichia coli strain BL21 assessed as dissociation constant by NMR spectroscopic analysis"}, "MC-38 [15]": {"tested_on": "MC-38", "assay": "Antitumor activity against mouse MC38 cells implanted in PD-1/PD-L1 humanized C57/BL6 mouse assessed as increase in granzyme B level at 50 mg/kg, IG qd administered on day 5 measured after 2 weeks by microscopic analysis", "type": "functional, organism-based"}, "[16]": {"assay": "Half life in Sprague-Dawley rat at 8 mg/kg, iv measured upto 48 hrs by LC-MS/MS analysis", "type": "ADME, organism-based", "details": "Sprague-Dawley, in vivo"}, "[17]": {"assay": "Clearance in Sprague-Dawley rat at 8 mg/kg, iv measured upto 48 hrs by LC-MS/MS analysis", "type": "ADME, organism-based", "details": "Sprague-Dawley, in vivo"}}, "note": "pKd: −log10 of the molar value. Calls of active or inactive are those of the source. The rule behind the calls is not given here.", "data": [{"smiles": "N#Cc1cncc(COc2cc(OCc3cccc(-c4ccccc4F)c3Cl)ccc2CNCCO)c1", "values": [{"measurement": "half-life", "setting": "[1]", "value": 146, "unit": "min"}, {"measurement": "Activity", "setting": "[2]", "value": "Non-Toxic"}, {"measurement": "AUC(0-inf)", "setting": "[3]", "value": 65500, "unit": "ng·h/mL"}, {"measurement": "Activity", "setting": "[4]", "value": "Non-Toxic"}, {"measurement": "inhibition", "setting": "[5]", "value": "Active"}, {"measurement": "Activity", "setting": "MC-38 [6]", "value": "Active"}, {"measurement": "Activity", "setting": "[7]", "value": "Non-Toxic"}, {"measurement": "Tmax", "setting": "[8]", "value": 1.75, "unit": "h"}, {"measurement": "Activity", "setting": "MC-38 [9]", "value": "Active"}, {"measurement": "Cmax", "setting": "[10]", "value": 6230, "unit": "ng/mL"}, {"measurement": "Cmax", "setting": "[11]", "value": 21500, "unit": "ng/mL"}, {"measurement": "Activity", "setting": "[12]", "value": "Non-Toxic"}, {"measurement": "Activity", "setting": "MC-38 [13]", "value": "Active"}, {"measurement": "pKd", "setting": "[14]", "value": "> 6.00"}, {"measurement": "Activity", "setting": "MC-38 [15]", "value": "Active"}, {"measurement": "half-life", "setting": "[16]", "value": 59.4, "unit": "min"}, {"measurement": "clearance", "setting": "[17]", "value": 10, "unit": "mL/min/kg"}]}]}
